Experimental data published in patent US10335382B2, “Use of hydrogen sulfide synthesis inhibitors for cancer therapy” (THE BOARD OF REGENTS OF THE UNIVERSITY OF TEXAS SYSTEM, priority 2013, dated 2019).
Where a name gives a salt, the structure may show the parent alone.

These compounds were tested against T1, CBS (Homo sapiens, UniProt P35520) (assay: CBS inhibitor screen: H2S production by recombinant CBS (methylene blue assay)). Details: 100 μM; homocysteine-induced H2S production; LOPAC library screen.
T1 sequence (P35520 1-551): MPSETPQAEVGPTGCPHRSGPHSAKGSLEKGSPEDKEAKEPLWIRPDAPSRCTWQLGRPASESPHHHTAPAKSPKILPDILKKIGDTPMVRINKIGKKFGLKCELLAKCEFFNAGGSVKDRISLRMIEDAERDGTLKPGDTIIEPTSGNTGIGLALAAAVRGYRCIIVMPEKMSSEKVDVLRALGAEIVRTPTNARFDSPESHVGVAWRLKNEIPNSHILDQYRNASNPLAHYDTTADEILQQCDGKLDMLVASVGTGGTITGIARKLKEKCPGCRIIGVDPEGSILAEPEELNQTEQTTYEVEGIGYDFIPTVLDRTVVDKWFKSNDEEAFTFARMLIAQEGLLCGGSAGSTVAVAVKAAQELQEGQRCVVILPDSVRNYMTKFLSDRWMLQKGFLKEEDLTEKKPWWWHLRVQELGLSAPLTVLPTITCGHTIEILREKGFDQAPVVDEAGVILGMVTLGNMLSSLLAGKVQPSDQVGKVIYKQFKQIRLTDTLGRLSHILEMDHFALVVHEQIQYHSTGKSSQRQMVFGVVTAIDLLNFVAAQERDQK
Assay type: biochemical
Set-up: These studies used full-length human CBS enzyme; made in house; host or cells: E. coli BL21 (DE3) Codon Plus
Source text: Studies have been performed characterizing, in detail, the specificity and selectivity of all known H2S biosynthesis inhibitors, using recombinant CBS and CSE enzymes. These studies used full-length human CBS enzyme, and a colorimetric ‘capture’ reaction of the H2S produced by these enzymes, an assay generally known as the ‘methylene blue assay’. This assay is used in a 96-well plate format, as well as in combination with a second screening method based on a fluorescent dye.
Human recombinant CBS is expressed as described (Asimakopoulou et al, (2013) Br J Pharmacol. 169(4):922-32). A library of pharmacologically active compounds (e.g., LOPAC library, Sigma; 1240 compounds) is tested on homocysteine-induced H2S production. In certain aspects the assay is in a 96-well format. In certain aspects H2S production is measured by the methylene blue assay (Asimakopoulou et al., (2013) Br J Pharmacol. 169(4):922-32).
Plasmids, bacterial strains and media. E. coli BL21 (DE3) Codon Plus is used as a host strain to express recombinant human CSE or CBS. CSE cDNA was cloned into pGEX-4T3 and CBS into pGEX-Kg to create N-terminal GSH-S-transferase (GST) fusion proteins. The expression vectors were transformed and plated on LB-agar plates, supplemented with ampicillin (100 μg/mL).
The expression and purification of CSE and CBS is performed as described previously with modifications (Frank et al., (2008) Arch Biochem Biophys 470:64-72; Huang et al., (2009) J Mol Biol 396: 708-18). Briefly, BL21(DE3) Codon Plus cells containing either the expression vector pGEX-4T3/GST-CSE or pGEX-Kg/GST-CBS are grown at 37° C. and 180 r.p.m. in LB broth medium containing 100 μg/mL ampicillin to an absorption of 0.6-0.8 at 600 nm. In addition, 0.3 mM d-ALA is added to the culture containing pGEX-Kg/GST-CBS. Then protein expression is induced by addition of 0.1 mM IPTG. Cells containing pGEX-4T-3/GST-CSE are incubated overnight at 18° C., whereas cells containing pGEXKg/GST-CBS are incubated overnight at 30° C. Culture is then centrifuged at 4° C. and 5000×g for 10 min and the cell pellet was resuspended in PBS (140 mM NaCl, 2.7 mM KCl, 10 mM Na2HPO4, 1.8 mM KH2PO4, pH 7.8) and stored at −20° C. overnight. After thawing, the suspension is sonicated in lysis buffer containing PBS and protease inhibitor cocktail for GST-CSE and PBS, 5 mM DTT, 1% Triton X-100, […] and protease inhibitor cocktail for GST-CBS. After centrifugation at 4° C. for 30 min, the soluble fraction containing either the GST-CSE or the GST-CBS recombinant protein is loaded onto a GSTrap FF 1 mL affinity column that has been equilibrated with binding buffer PBS. The column was consecutively washed with five column volumes of binding buffer. Proteins attached to the column, including GST-CSE or GST-CBS recombinant proteins, are eluted with five column volumes of elution buffer (50 mM Tris-HCl, 10 mM reduced GSH, pH 8.0) and then dialysed and concentrated in 10 mM sodium phosphate buffer pH 8.2 and DTT 1 mM. The purity of the recombinant enzymes was checked by SDS-PAGE on 12% polyacrylamide gels after staining of protein bands with Coomassie Blue R-250. Protein concentration was determined using the DC protein assay kit.
H2S determination is performed according to Stipanuk and Beck ((1982) Biochem J 206:267-77) with some modifications. In the case of the CSE enzyme, an assay consist of a 100 μL reaction mixture containing 5 μg of the purified CSE enzyme, 0.01 mM PLP, 1 mM L-cys, and 50 mM sodium phosphate buffer pH 8.2. For the CBS enzyme, the reaction mixture contains the same as for the CSE plus 1 mM homocysteine. The inhibitors can be added to the reaction before L-cys is added to the solution. Reactions are initiated by transferring the reaction solutions from ice to a 37° C. shaking water bath. After incubation at 37° C. the reaction is terminated by adding 1% ZnAc to trap H2S followed by 10% TCA to precipitate proteins. […]

| Compound | Inhibition of CBS activity at 100 μM |
| --- | --- |
| NC(Cc1cc(O)c(O)cc1O)C(=O)O (racemic) [6-Hydroxy-DL-DOPA] | 77% |
| Cl.NC[C@@H]1O[C@H](C23CC4CC(CC(C4)C2)C3)Cc2c1ccc(O)c2O [A-77636 hydrochloride] | 30% |
| C[n+]1c2cc(N)ccc2cc2ccc(N)cc21 [Acriflavinium] | 64% |
| CN1CC[C@@]2(C)c3cc(O)ccc3N(C)[C@@H]12.O=C(O)/C=C/C(=O)O [Eseroline fumarate] | 60% |
| O=C1Nc2ccc(I)cc2/C1=C/c1cc(Br)c(O)c(Br)c1 [GW5074] | 87% |
| CN(N=O)c1ccc(O)c(O)c1 [Me-3,4-dephostatin] | 85% |
| CC[N+](C)(CC)CCC[n+]1c(-c2ccccc2)c2cc(N)ccc2c2ccc(N)cc21.[I-].[I-] [Propidium iodide] | 41% |

Same assay, conditions: 100 μM; homocysteine-induced H2S production; LOPAC library screen; read-out: Inhibition of CBS activity at 100 μM

| Compound | inhibition at 100 µM |
| --- | --- |
| COC1=C(OC)C(=O)c2ccccc2C1=O [2,3-Dimethoxy-1,4-naphthoquinone] | 98% |
| O=C(O)C1=CC(=C(c2ccc(O)c(C(=O)O)c2)c2ccc(O)c(C(=O)O)c2)C=CC1=O [Aurintricarboxylic acid] | 75% |
| C=C(c1ccc(C(=O)O)cc1)c1cc2c(cc1C)C(C)(C)CCC2(C)C [Bexarotene] | 58% |
| C=C1CC[C@H](O)C/C1=C/C=C1\CCC[C@]2(C)[C@@H]([C@H](C)CCCC(C)(C)O)CC[C@@H]12 [Calcifediol] | 32% |
| C[C@@](Cc1ccc(O)c(O)c1)(NN)C(=O)O [Carbidopa] | 45% |
| Cc1cc(C(C#N)c2ccc(Cl)cc2)c(Cl)cc1NC(=O)c1cc(I)cc(I)c1O (stereo not shown) [Closantel] | 72% |
| C[C@@H](N)[C@H]1CC[C@H](C(=O)Nc2ccncc2)CC1 [Compound Y-27632] | 94% |
| CN(C)[C@@H]1C(O)=C(C(N)=O)C(=O)[C@@]2(O)C(O)=C3C(=O)c4c(O)ccc(Cl)c4[C@@H](O)[C@H]3C[C@@H]12 [Demeclocycline hydrochloride] | 96% |
| COc1cccc2c1C(=O)c1c(O)c3c(c(O)c1C2=O)C[C@@](O)(C(=O)CO)C[C@@H]3O[C@H]1C[C@H](N)[C@H](O)[C@H](C)O1 [Doxorubicin] | 52% |
| C[C@H]1c2cccc(O)c2C(=O)C2=C(O)[C@]3(O)C(=O)C(C(N)=O)=C(O)[C@@H](N(C)C)[C@@H]3[C@@H](O)[C@@H]21 [Doxycycline] | 57% |
| C[C@]12CC[C@@H]3c4ccc(O)cc4CC[C@H]3[C@@H]1CC[C@@H]2O [Estradiol] | 53% |
| CC(C)(Sc1ccc(CCN(CCCCC2CCCCC2)C(=O)NC2CCCCC2)cc1)C(=O)O [GW7647] | 73% |
| CC[C@H](c1ccc(O)cc1)[C@@H](CC)c1ccc(O)cc1 [Hexestrol] | 50% |
| CC(C)C(=O)c1c(C(C)C)nn2ccccc12 [Ibudilast] | 30% |
| C[C@H](CCC(=O)O)[C@H]1CC[C@H]2[C@@H]3CC[C@@H]4C[C@H](O)CC[C@]4(C)[C@H]3CC[C@]12C [Lithocholic acid] | 42% |
| CCC1(c2ccccc2)NC(=O)N(C)C1=O (stereo not shown) [Mephenytoin] | 32% |
| CN1CC[C@@]2(C)c3cc(OC(=O)Nc4ccccc4)ccc3N(C)[C@@H]12 [Phenserine] | 53% |
| O=C(c1ccc(OCCN2CCCCC2)cc1)c1c(-c2ccc(O)cc2)sc2cc(O)ccc12 [Raloxifene] | 60% |
| CC1=C(/C=C/C(C)=C/C=C/C(C)=C/C(=O)O)C(C)(C)CCC1 [Retinoic acid] | 43% |
| CC(C)=CC[C@@H](O)C1=CC(=O)c2c(O)ccc(O)c2C1=O [Shikonin] | 51% |

Same assay, conditions: read-out: Inhibition of CBS activity at 100 μM

| Compound | inhibition at 100 µM |
| --- | --- |
| CC(=O)c1c(O)c(C)c(O)c(Cc2c(O)c3c(c(C(=O)/C=C/c4ccccc4)c2O)OC(C)(C)C=C3)c1O [Rottlerin] | 96% |
